Patent US11248022B2, “Glypican-3 peptide reagents and methods” (THE REGENTS OF THE UNIVERSITY OF MICHIGAN, priority 2017, dated 2022)
Read-outs that look alike come from different tables or passages of the source. Ends that are not written are not given here.

Legend:
Hep3B human HCC cells = test: Confocal microscopy of peptide binding to Hep3B cells; type: cell-based
Method: (§1) FIGS. 6-2A-Q show validation of specific peptide binding to cells in vitro. […] The Hep3B versus SK-Hep1 difference was also larger for antibody than QLE (P=2.3×10^−8, 6.0-fold larger). Intensity was measured with 6 replicates per condition and fitted to an ANOVA model with terms for 9 means to log-transformed data. […] We further validated specific peptide binding to GPC3 using siRNA knockdown. […] Q) Quantified fluorescence intensities. The siCL vs siGPC3 difference was 7.4 times bigger for ALL than the same difference for QLE (P=7.8×10^−5), and the difference for antibody was 8.9 times bigger than for QLE (P=2.5×10^−5), by ANOVA on log-transformed data. Results are an average of 6 images collected independently.
(§2) On confocal microscopy, it was shown that ALL*-Cy5.5 binds to the surface (arrows) of cells with different levels of GPC3 expression. […] GPC3 is highly overexpressed in Hep3B cell cytosol and membrane while moderately expressed in HepG2 cells. No GPC3 expression is observed in SK-Hep1 cells. Tubulin serves as loading control for either cytosol or membrane fractions loaded.

HepG2 human HCC cells = test: Confocal microscopy of peptide binding to HepG2 cells; type: cell-based
Method: as §1, §2

SK-Hep1 cells = test: Confocal microscopy of peptide binding to SK-Hep1 cells; type: cell-based, human
Method: as §1, §2

GPC3 = molecular target: T1, GPC3 (Homo sapiens, UniProt P51654); test: siRNA knockdown of GPC3 in Hep3B cells, confocal fluorescence; type: cell-based
T1 construct: endogenous in cells; host or cells: Hep3B human HCC cells (siCL control vs siGPC3 knockdown); also HepG2; SK-Hep1 as GPC3-negative control
Method: as §1
The specificity of lead candidate peptide reagent binding was validated by siRNA knockdown of GPC3 in human HCC cells. The cells were transfected with siRNA to knockdown cell surface expression of GPC3. […] These cells were transfected with non-targeting siRNA (siCL) for use as control. […] FIG. 6-1D,E show ˜4-fold reduction in fluorescence intensity with both the peptide reagent and anti-GPC3 antibody, respectively, for Hep3B cells transfected with siRNA (siGPC3) to knock down GPC3 expression. […] FIG. 6-2M, N, O and P show the same result as original FIG. 6-1A, B, D and E.

Hep3B cells = test: Apparent association time constant on Hep3B cells by flow cytometry; type: binding, human
Method: The apparent association time constant (k) was also measured for the optimized GPC3 peptide to provide an assessment of how rapidly the peptide binds. The ALL*-Cy5.5 peptide reagent was incubated with Hep3B cells over time intervals ranging from 0 to 40 min. Fluorescence intensities were measured on flow cytometry. The median fluorescence intensity (y) was ratioed with that of Hep3B cells without addition of peptide reagent at different time points (t).

[1] = Biodistribution of peptide in excised organs; type: in vivo, mice; conditions: excised organs 2 hours post injection, n=5
Method: To assess the biodistribution of peptide probe, mice (n=5) were sacrificed 2 hours after injection of 250 μL of 300 μM ALL*-Cy5.5 using a fluorescence imaging system (IVIS Spectrum, PerkinElmer, Mass.). The organs were harvested and imaged ex vivo. Mice injected with scrambled control peptide, QLE*-Cy5.5 and free dye Cy5.5 were imaged with the same filters and exposure time. Absence of auto fluorescence was confirmed in PBS injected mice. The amount of fluorescent signal in each organ was quantified as a percentage of total fluorescence signal (p/s) in each mouse. Ex vivo fluorescence images taken of internal organs as well as resected tumor 2 hours post injection of probes are shown in FIG. 10A. Free Cy5.5 dye and Cy5.5 labeled targeting and scrambled peptides accumulated most in the liver and kidneys of mice, followed by GI tract and spleen.

Hep3B xenograft tumors = test: Ex vivo confocal validation on Hep3B xenograft sections and normal liver; parameters: species or system mice
Description: The specimens were also sectioned for collection of confocal images to perform microscopic validation of peptide binding ex vivo.

[2] = tested on: GPC3 positive tumor (from Hep3B cells); conditions: mouse, in vivo, iv
Method: Mice bearing HCC xenograft tumor (arrowheads) were i.v. injected with 250 μL of 300 μM near NIR GPC3 targeting peptide ALL*-Cy5.5, scrambled control peptide QLE*-Cy5.5 and unlabeled Cy5.5 free dye alone. ALL*-Cy5.5 was also injected in mice bearing GPC3 negative tumor (from SK Hep-1 cells, arrows) as control of EPR effect. Pre-injection imaging confirmed no autofluorescence was present.

[3] = 6 replicates, log-transformed data

T1 sequence (P51654 25-554): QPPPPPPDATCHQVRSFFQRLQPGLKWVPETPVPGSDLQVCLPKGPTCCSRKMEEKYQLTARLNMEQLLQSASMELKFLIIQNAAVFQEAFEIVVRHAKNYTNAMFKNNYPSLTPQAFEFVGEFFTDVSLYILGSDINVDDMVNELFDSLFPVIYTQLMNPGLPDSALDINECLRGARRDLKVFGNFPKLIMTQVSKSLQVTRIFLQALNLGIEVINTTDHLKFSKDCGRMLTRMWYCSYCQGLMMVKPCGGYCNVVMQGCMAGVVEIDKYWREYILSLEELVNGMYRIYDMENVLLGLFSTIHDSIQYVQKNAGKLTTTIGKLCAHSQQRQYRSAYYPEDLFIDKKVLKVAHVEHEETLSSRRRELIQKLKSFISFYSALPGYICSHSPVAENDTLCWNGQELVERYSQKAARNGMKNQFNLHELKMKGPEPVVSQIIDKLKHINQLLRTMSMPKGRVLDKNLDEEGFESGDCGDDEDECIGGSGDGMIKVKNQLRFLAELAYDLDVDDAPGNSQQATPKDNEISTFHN

ALLANHEELFQT (SEQ ID NO: 1) peptide labeled with Cy5.5 via a GGGSK linker on the C-terminus (ALLANHEELFQTGGGSK-{Cy5.5}) [ALL*-Cy5.5]
intensity difference Hep3B vs SK-Hep1 relative to the same difference for QLE* (Hep3B human HCC cells; [3]): 8.2 fold
fluorescence intensity from binding to cell surface (Hep3B human HCC cells; Hep3B cells, confocal microscopy): strong fluorescence intensity
intensity difference HepG2 versus SK-Hep1 relative to the same difference for QLE* (HepG2 human HCC cells; [3]): 3.3 fold
fluorescence intensity from binding to cell surface (HepG2 human HCC cells; HepG2 cells, confocal microscopy): strong fluorescence intensity
fluorescence intensity from binding to cell surface (SK-Hep1 cells): minimal signal
siCL vs siGPC3 difference relative to the same difference for QLE (GPC3; ANOVA on log-transformed data): 7.4 times
fluorescence intensity remaining (% of siCL control) (GPC3; GPC3 knockdown cells): 27%
binding to cell surface (GPC3; Hep3B cells transfected with non-targeting siRNA (siCL)): strong binding
reduction in fluorescence intensity (GPC3; Hep3B cells transfected with siGPC3 vs siCL): ~4 fold
fluorescence intensity (GPC3; siCL treated Hep3B control cells): 54.3±6.0
fluorescence intensity (GPC3; siGPC3 knockdown Hep3B cells): 14.7±1.5
apparent association time constant k (Hep3B cells): 0.11 min⁻¹
onset of binding (Hep3B cells): 9.1 min
apparent association time constant k (Hep3B cells; FIG. 8B legend): 0.11 min⁻¹
signal in the tumor vs scrambled probe, GPC3 negative tumor, free dye [1]: significantly higher
cell surface staining of xenograft sections (Hep3B xenograft tumors; Hep3B xenograft sections, compared with QLE*-Cy5.5): increased cell surface staining
intensity from peptide binding, HCC vs normal (Hep3B xenograft tumors; n=26): 2.22 fold
staining of normal mouse liver (Hep3B xenograft tumors; normal mouse liver sections): Minimal staining
time of peak uptake/signal post injection [2]: 2 h
